# Assay results as given in ChEMBL document CHEMBL5727940, “Substituted piperazines as selective HDAC1,2 inhibitors” (2020).
# Target: hERG (KCNH2) (Homo sapiens, UniProt Q12809)
# Test: hERG inhibition assays: For hERG inhibition assays, the cells used were HEK293 cells stably transfected with hERG (cell line obtained from Cytocentrics Inc. 3463 Magic Drive San Antonio, Tex. 78229). Composition of External Solution: NaCl, 137 mM; KCl, 4 mM; MgCl2, 1.0 mM; CaCl2, 1.8 mM; HEPES 10 mM; Dextrose 11 mM; Adjusted to a pH of 7.4 with NaOH. Composition of Internal Solution: KCl, 130.0 mM
# Settings: pH 7.4
# Chain of hERG (KCNH2) (Q12809 whole entry): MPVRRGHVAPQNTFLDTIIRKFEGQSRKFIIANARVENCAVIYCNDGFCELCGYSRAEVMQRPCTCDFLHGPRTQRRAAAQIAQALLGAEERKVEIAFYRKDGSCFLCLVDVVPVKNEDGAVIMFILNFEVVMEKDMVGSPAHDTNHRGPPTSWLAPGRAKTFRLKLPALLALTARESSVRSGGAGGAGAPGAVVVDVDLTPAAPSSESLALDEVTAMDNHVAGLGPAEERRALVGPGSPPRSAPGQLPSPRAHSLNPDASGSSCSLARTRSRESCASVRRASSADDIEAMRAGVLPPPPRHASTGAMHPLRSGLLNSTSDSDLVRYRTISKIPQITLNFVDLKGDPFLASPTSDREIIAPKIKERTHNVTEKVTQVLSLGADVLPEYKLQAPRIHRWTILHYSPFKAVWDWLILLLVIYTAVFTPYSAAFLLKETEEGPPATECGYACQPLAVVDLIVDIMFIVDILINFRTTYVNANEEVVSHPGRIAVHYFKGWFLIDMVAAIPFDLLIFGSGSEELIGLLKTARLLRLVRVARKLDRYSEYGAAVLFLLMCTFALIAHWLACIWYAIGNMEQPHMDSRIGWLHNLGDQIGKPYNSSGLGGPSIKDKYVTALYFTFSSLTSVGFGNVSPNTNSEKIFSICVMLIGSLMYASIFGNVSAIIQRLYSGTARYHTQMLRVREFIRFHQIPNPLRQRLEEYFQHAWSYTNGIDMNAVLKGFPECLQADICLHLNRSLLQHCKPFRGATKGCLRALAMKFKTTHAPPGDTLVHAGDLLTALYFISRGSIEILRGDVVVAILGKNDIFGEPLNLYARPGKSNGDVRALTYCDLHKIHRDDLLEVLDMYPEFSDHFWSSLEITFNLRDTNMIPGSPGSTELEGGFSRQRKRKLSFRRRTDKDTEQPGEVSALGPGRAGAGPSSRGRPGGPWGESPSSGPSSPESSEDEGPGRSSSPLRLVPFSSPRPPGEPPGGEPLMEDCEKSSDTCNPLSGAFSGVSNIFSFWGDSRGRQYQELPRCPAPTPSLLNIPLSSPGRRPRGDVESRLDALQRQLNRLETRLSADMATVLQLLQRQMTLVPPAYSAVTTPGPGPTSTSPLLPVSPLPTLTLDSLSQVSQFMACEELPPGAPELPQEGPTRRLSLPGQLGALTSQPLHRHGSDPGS
smiles,measurement,value
Nc1ccc(-c2cccs2)cc1NC(=O)c1ncc(N2CCNCC2)s1,IC50,3.6 µM
